This note sets out measurements from ChEMBL document CHEMBL1201862, “PubChem BioAssay data set” (2004).

Test [1] concerns the target T1, Beta Lactamase (Pseudomonas aeruginosa, UniProt Q932Y6). Nature of the test: beta-lactamase reporter inhibitor potency, dose response, artefact control for TLR9-MyD88 binding inhibitor project, BLA reporter cells, FRET fluorescence (AID 588341).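 Note: cell based assay in CHO-K1 cells stably expressing beta-lactamase.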 The format is cell-based.
Test [2] can be described thus: cells. The format is functional, cell-based.
Test [3] has as its target T2, Type-1 angiotensin II receptor (Homo sapiens, UniProt P30556).
T2 sequence (P30556 whole entry): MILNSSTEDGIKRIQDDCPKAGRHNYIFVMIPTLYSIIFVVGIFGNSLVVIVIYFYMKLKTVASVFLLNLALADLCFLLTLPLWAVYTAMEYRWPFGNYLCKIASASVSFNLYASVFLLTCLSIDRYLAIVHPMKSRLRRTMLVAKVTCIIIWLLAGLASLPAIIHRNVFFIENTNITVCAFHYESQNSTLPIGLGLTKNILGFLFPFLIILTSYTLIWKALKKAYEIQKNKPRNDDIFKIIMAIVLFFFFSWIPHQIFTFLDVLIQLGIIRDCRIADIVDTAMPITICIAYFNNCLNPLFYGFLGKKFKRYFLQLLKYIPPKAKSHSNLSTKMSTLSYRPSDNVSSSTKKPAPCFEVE
As to the kind of experiment: AT1 receptor antagonists, dose response, selectivity assay for APJ receptor antagonist project, cell-based, uHTS hits (AID 463214).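 Note: antagonist potency against angiotensin II stimulated AT1 response.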 The format is functional.

A further test concerns the target Beta-galactosidase (Escherichia coli, UniProt Q8VNN2). As to the kind of experiment: PubChem AID 485352. The test is classed as functional.
The nature of test [4]: cells. The format is functional, cell-based. This is another data set of the same source.
Test [5] addresses T1, Beta Lactamase. Nature of the test: beta-lactamase reporter inhibitor potency, dose response, artefact control for NOD2-RIPK2 interaction inhibitor project, BLA reporter cells, FRET fluorescence (AID 651552). The format is functional, cell-based.
In test [6] the target is T3, Microphthalmia-associated transcription factor (Homo sapiens, UniProt O75030).
T3 sequence (O75030 whole entry): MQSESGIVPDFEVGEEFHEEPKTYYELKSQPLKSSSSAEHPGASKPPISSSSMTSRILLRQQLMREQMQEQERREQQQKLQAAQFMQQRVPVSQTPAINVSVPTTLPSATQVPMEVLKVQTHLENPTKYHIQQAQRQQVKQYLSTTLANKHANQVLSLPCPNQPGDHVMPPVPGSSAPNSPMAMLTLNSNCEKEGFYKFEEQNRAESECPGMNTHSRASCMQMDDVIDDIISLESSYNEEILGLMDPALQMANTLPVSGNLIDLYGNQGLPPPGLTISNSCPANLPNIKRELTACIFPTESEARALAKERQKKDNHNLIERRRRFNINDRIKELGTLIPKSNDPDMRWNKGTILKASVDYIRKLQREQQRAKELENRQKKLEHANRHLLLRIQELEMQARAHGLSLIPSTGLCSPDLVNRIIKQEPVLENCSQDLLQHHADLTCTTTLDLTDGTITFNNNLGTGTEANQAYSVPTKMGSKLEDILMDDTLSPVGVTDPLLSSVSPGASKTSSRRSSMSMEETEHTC
As to the kind of experiment: TRPM1 promoter luciferase signal decrease, dose response, MITF inhibitor project, cell-based, SK-MEL-5, cherry-picked, set 3 (AID 493073).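 Note: SK-MEL-5 melanoma cells with luciferase driven by the MITF target TRPM1 promoter.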 The format is functional.

Test [7] in a line: Fluorescence-based cell-based high throughput dose response assay for inhibitors of the interaction of nucleotide-binding oligomerization domain containing 2 (NOD2) and the receptor-interacting serine-threonine kinase 2 (RIPK2). Conditions: Homo sapiens. The test is classed as functional.
The test system of another test is CHO. As to the kind of experiment: cytotoxicity in TLR9-MyD88 CHO cells, dose response, cytotoxicity control for TLR9-MyD88 binding inhibitor project, cell-based, luminescence (AID 588339).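 Note: CHO cells stably coexpressing TLR9 and MyD88 fusions from primary screen; compound exposure lasted 48 hours before viability readout.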 The format is functional, hamster. To be noted: Cricetulus griseus.
Test [8] concerns the target T4, Sentrin-specific protease 7 (Homo sapiens, UniProt Q9BQF6).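 Note: Luminescence-based dose-response confirmation of ultra-high-throughput screening hits, measuring inhibition of SENP7.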
T4 sequence (Q9BQF6 whole entry): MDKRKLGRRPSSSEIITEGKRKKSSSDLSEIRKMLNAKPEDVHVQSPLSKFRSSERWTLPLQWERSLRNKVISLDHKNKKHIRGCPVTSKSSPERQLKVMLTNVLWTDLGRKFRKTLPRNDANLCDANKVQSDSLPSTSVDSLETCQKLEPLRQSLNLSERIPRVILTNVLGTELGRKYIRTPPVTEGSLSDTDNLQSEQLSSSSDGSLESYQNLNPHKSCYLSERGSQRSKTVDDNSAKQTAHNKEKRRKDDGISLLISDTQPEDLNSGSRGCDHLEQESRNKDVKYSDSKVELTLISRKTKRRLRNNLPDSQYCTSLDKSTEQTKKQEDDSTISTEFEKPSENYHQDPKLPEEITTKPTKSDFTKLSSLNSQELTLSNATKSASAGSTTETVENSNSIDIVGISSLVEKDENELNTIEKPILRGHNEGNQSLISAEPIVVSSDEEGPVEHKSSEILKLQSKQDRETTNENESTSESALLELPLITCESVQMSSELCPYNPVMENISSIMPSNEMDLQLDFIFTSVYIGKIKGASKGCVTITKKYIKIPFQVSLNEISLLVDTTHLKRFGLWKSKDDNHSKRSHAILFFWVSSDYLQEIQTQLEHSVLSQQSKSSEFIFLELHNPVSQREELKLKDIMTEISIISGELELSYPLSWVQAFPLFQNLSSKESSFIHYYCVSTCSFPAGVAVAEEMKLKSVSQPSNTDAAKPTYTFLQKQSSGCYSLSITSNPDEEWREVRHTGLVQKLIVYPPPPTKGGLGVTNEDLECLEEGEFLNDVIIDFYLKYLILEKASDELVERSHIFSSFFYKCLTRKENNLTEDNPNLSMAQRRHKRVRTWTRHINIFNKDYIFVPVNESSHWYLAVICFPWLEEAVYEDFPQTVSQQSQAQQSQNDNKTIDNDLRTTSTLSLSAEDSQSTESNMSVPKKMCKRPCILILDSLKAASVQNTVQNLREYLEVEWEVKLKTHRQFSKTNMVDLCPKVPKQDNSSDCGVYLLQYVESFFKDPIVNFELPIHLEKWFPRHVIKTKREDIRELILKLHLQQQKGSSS
The format is functional.

The next test addresses T5, Caspase-3 (Homo sapiens, UniProt P42574).
T5 sequence (P42574 whole entry): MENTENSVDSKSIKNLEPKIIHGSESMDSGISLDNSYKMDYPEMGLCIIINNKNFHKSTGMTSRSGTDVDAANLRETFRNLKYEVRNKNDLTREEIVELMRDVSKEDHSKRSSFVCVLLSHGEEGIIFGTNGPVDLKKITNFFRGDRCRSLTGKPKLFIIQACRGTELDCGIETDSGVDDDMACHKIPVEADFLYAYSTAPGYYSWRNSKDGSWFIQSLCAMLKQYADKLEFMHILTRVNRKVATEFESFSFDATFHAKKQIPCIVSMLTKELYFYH
The test is classed as functional.

For test [9], the target named is T6, Sentrin-specific protease 8 (Homo sapiens, UniProt Q96LD8).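 Note: luminescence read-out of SENP8 inhibition, dose-response confirmation following an ultra-high-throughput screen.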
T6 sequence (Q96LD8 whole entry): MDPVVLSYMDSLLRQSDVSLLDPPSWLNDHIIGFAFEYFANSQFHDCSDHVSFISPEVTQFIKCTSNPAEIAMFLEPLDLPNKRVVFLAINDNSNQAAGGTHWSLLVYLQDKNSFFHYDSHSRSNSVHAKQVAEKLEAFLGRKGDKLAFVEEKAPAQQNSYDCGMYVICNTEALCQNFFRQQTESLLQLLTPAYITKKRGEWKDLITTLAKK
The format is functional.

Test [10] is described as follows: HeLa cell cytotoxicity, dose response, cytotoxicity control for MgcRacGAP inhibitor project (AID 624300). The format is functional.
The target in test [11] is T7, Rac GTPase-activating protein 1 (Homo sapiens, UniProt Q9H0H5).
T7 sequence (Q9H0H5 whole entry): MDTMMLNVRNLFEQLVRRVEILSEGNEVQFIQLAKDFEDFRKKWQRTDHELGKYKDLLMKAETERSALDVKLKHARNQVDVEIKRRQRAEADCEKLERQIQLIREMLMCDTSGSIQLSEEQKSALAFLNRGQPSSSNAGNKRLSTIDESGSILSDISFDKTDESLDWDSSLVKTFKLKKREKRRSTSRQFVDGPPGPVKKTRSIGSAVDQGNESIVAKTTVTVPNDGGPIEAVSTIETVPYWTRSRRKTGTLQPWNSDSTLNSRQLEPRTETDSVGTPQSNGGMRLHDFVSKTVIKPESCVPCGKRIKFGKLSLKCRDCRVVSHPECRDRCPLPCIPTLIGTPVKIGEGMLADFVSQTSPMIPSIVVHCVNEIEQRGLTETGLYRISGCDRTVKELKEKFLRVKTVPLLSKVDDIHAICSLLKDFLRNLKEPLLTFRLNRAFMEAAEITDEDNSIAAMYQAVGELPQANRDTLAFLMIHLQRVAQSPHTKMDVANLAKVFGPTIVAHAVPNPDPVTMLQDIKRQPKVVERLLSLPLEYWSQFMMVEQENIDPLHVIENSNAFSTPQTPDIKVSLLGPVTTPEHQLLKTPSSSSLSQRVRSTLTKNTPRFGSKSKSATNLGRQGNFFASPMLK
As to the kind of experiment: MgcRacGAP GTPase-activating activity inhibitors, confirmation, biochemical, ADP Hunter fluorescence, primary and confirmatory (AID 624330). The test is classed as functional.

The target of test [12] is T8, Sentrin-specific protease 6 (Homo sapiens, UniProt Q9GZR1).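 Note: Luminescence-based dose-response confirmatory assay of SENP6 inhibition, following up an ultra-high-throughput screen.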
T8 sequence (Q9GZR1 whole entry): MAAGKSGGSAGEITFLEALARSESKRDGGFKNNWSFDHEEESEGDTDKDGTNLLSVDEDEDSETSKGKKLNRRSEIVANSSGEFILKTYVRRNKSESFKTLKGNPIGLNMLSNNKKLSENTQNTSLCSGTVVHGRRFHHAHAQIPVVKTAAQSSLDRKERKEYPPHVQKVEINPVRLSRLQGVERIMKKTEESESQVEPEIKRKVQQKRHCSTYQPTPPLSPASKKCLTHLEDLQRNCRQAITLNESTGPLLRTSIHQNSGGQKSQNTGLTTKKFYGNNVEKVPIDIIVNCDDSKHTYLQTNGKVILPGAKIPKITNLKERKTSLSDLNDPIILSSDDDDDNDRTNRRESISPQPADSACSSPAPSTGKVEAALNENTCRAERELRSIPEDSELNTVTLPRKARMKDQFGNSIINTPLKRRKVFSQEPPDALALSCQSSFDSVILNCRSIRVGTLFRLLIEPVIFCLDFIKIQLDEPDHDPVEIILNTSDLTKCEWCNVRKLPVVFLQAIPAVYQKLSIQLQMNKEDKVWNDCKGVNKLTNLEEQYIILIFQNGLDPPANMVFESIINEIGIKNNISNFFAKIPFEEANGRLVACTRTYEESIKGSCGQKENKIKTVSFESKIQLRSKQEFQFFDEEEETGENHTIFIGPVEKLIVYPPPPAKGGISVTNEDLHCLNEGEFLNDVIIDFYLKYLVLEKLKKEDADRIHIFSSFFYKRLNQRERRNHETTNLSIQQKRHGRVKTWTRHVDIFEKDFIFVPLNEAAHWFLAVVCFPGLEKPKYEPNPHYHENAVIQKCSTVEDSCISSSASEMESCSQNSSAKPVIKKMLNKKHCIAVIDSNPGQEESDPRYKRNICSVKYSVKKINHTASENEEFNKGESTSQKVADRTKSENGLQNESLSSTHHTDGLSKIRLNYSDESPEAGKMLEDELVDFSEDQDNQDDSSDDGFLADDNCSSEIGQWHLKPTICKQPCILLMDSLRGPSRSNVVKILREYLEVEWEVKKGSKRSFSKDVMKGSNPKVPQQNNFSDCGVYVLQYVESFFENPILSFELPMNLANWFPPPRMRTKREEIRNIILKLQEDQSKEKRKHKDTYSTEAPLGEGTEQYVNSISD
The format is functional.

Test [13] is described as follows: Counterscreen for inhibitors of Trypanosoma brucei methionyl tRNA synthetase (MetRS): Luminescence-based cell-based high throughput dose response assay to identify compounds that are cytotoxic to Jurkat human T lymphocyte cells. The format is functional. A general note: A counterscreen serves to expose hits that act by an unwanted route or on another target.
Test [14] concerns the target T9, Methionyl-tRNA synthetase, putative (Trypanosoma brucei brucei, UniProt Q38C91). The format is functional, Trypanosoma brucei brucei strain 927/4 GUTat10.1.
The target in test [15] is T9, Methionyl-tRNA synthetase, putative. The test is classed as functional, Trypanosoma brucei brucei strain 927/4 GUTat10.1. This is another data set of the same source.

SMILES strings stand for the structures. Activity calls are given as the source filed them.

A word on the IC50: it is the concentration that inhibits the measured activity by half. The EC50 is the midpoint of the concentration-response curve. For orientation: AC50 means the midpoint of the concentration-response curve, whichever way the signal moves. A word on the CC50: it is the concentration that lowers cell viability or growth by half.

T1 sequence (Q932Y6 whole entry): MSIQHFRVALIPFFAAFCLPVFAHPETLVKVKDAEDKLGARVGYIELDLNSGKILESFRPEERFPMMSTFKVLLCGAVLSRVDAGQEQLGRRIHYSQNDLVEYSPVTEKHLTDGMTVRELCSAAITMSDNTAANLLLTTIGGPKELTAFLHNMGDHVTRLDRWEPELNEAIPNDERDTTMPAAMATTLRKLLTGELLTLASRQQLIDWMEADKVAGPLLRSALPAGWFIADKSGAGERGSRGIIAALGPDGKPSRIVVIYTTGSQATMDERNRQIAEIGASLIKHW
T9 sequence (Q38C91 whole entry): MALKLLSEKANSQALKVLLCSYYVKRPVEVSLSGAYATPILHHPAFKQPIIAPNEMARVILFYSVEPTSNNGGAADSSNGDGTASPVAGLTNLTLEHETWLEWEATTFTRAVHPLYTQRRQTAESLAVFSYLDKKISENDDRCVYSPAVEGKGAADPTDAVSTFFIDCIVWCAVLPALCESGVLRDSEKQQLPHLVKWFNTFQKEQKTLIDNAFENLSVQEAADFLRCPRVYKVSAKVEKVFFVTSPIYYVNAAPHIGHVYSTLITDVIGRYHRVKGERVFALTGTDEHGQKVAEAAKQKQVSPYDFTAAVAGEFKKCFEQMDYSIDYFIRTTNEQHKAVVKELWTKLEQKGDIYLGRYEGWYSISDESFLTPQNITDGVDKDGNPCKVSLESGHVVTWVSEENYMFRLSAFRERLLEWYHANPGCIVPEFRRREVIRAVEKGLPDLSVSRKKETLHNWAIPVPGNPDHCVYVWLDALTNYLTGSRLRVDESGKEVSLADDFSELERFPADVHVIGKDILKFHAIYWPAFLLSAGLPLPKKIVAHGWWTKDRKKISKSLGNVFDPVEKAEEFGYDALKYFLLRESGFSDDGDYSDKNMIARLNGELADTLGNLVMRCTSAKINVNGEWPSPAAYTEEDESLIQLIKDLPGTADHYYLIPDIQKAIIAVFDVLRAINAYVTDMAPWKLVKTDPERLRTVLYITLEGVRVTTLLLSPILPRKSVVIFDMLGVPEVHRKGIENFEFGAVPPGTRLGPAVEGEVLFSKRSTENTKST
Beta-galactosidase, sequence (Q8VNN2 whole entry): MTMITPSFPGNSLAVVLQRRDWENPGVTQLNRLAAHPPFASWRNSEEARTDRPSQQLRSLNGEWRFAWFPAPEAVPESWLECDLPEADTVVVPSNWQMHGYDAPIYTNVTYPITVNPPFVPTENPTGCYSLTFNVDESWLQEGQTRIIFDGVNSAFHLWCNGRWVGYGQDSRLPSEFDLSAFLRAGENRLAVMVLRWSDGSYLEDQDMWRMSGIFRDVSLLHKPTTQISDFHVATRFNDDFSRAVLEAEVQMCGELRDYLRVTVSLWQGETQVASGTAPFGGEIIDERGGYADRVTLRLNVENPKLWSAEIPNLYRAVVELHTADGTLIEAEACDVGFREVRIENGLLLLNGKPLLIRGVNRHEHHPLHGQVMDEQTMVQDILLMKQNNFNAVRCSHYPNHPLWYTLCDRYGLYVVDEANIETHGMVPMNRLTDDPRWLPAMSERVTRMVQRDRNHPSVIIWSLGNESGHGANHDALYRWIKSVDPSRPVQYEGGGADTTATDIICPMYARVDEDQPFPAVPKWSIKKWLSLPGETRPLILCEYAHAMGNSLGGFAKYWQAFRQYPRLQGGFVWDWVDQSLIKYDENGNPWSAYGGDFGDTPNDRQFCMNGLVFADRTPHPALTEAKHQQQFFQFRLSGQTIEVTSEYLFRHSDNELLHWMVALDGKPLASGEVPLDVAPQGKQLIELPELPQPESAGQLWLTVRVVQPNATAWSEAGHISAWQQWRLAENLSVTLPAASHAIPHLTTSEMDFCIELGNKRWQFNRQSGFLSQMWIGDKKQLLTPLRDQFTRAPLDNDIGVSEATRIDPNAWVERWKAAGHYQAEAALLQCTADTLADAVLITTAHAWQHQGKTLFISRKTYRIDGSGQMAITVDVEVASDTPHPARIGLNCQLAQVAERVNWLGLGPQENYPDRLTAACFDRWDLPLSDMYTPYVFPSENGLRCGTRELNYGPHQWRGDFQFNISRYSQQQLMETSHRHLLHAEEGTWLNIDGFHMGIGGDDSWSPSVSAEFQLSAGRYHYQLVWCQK

For `COc1ccc(C(=O)/C=C/C(=O)N(CC(=O)NC2CCCCC2)CC2CCCO2)c(O)c1` (stereo not drawn), the IC50 on Beta Lactamase [1] is 23.3 µM (inactive); in test [3], 5.35 µM (active); on Beta Lactamase [5], 19.9 µM (inactive); in test [7], 2.17 µM (active); in the test on CHO, 1.84 µM (active). The figures for the EC50 in “cells [2]”, at Beta-galactosidase and in the test “cells [4]” were 34.3 µM (active), > 40 µM (inactive) and > 350 µM (not active), respectively. Also, the concentration at half-maximal activity (AC50) in [6] is 4.01 µM (active).
On to `COc1ccc(NC(=O)n2ncc3cc(Cl)ccc32)cc1OC`, for which the IC50 was 6.04 µM (active) in test [8]; 25.5 µM (active) at Caspase-3; 20.3 µM (active) in test [9]; 230 µM (active) in [11]; 15.1 µM (active) in [12]. Moreover, the CC50 in test [10] was 100 µM (active).
As for `Cc1ccc(NC(=O)C=NOCC(=O)Nc2cc(C)cc(C)c2)cc1`, the IC50 in [13] was 83.3 µM (inactive); in [14] it was 119 µM (inactive); in test [15], 8.66 µM (active).
